# According to patent US6723717B1, “Sulfur-containing thyroxane derivatives and their use as hair growth promotors” (The University of Texas Southwestern Medical Center, priority 1999, dated 2004):
# System: male Sprague Dawley rats
# Experiment: Cardiotoxicity Assay (heart-to-body weight ratio)
# Type: in vivo, rat
# Conditions: 250 μg/kg subcutaneously once daily for 28 days, hearts weighed on day 30
# From the text: The cardiotoxicity assay measures the potential of a test compound to adversely affect the cardiovascular system. As thyroid hormone (T3) damages the cardiovascular system, the heart enlarges. See, e.g., Gomberg-Maitland et al., “Thyroid hormone and Cardiovascular Disease”, American Heart Journal, Vol. 135(2), pp. 187-196 (1998); Klein and Ojamaa, “Thyroid Hormone and the Cardiovascular System”, Current Opinion in Endocrinology and Diabetes, Vol. 4, pp.341-346 (1997); and Klemperer et al., “Thyroid Hormone Therapy and Cardiovascular Disease”, Progress in Cardiovascular Diseases, Vol. 37 (4), pp. 329-336 (1996). This increases the weight of the heart relative to whole body weight. The cardiotoxicity assay herein below is used to test compounds for potentially adverse cardiac effects by measuring their effect on the heart-to-body weight ratio.
# Two groups each of six male Sprague Dawley rats (Harlan Sprague Dawley, Inc., Indianapolis, Ind.) (each weighing from approximately 220 grams to 235 grams) are utilized. The first group is a vehicle control group and the second group is a test compound group. The length of the assay is 30 days, with treatment of vehicle or test compound in vehicle daily for 28 of those days as described below.
# Prior to initiation of the assay, each rat is allowed to acclimate to standard environmental conditions for 5 days. […]
smiles,measurement,value
"N[C@@H](Cc1cc(I)c(Oc2cc(I)c(O)c(I)c2)c(I)c1)C(=O)O [Example T4, thyroxine]","cardiac-sparing (index C = RT/RV, heart/body weight ratio of test group over vehicle group; C less than 1.3 = cardiac-sparing)",not cardiac-sparine
